This test concerns the target human APJ receptor (Homo sapiens (Human), UniProt P35414). Briefly: [35S]GTPγS binding assay on membranes from CHO cells stably expressing human APJ receptor. In kind it is biochemical. To be noted: read-out: Activity hAPJ SPA EC50 IP. The procedure, abridged: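 Agonist-driven [35S]GTPγS (0.2 nM) binding was measured over 90 min at room temperature on human APJ-expressing CHO membranes with bead capture, in buffer containing 3 μM GDP, 200 mM NaCl and 5 mM MgCl2 (pH 7.5). Excess unlabelled GTPγS (100 μM) gave nonspecific signal; EC50 from non-linear fits.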

Chain of human APJ receptor (P35414 whole entry): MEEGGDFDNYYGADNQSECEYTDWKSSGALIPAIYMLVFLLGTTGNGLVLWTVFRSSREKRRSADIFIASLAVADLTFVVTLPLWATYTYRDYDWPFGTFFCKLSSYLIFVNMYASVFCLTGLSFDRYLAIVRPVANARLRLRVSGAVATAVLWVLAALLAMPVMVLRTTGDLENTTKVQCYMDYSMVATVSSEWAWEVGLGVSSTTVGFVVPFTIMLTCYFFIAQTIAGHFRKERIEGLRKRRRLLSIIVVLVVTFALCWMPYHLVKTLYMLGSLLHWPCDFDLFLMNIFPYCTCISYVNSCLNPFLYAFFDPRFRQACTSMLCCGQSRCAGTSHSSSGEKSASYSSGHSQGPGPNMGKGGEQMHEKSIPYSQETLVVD

By EC50 is commonly meant the concentration that produces a half-maximal response. Regarding `CCC(CC)n1c(NS(=O)(=O)[C@@H](C)[C@H](OC)c2ncc(Cl)cn2)nnc1[C@@H]1COCCO1` (single isomer, unassigned) [Example 335.0, (1R,2S)-1-(5-chloro-2-pyrimidinyl)-N-(5-((2R)-1,4-dioxan-2-yl)-4-(3-pentanyl)-4H-1,2,4-triazol-3-yl)-1-methoxy-2-propanesulfonamide or (1R,2S)-1-(5-chloro-2-pyrimidinyl)-N-(5-((2S)-1,4-dioxan-2-yl)-4-(3-pentanyl)-4H-1,2,4-triazol-3-yl)-1-methoxy-2-propanesulfonamide], the EC50 is 0.038 µM.

`CCC(CC)n1c(NS(=O)(=O)[C@@H](C)[C@H](OC)c2ncc(Cl)cn2)nnc1[C@@H]1COCCO1` (single isomer, unassigned) [Example 336.0, (1R,2S)-1-(5-chloro-2-pyrimidinyl)-N-(5-((2R)-1,4-dioxan-2-yl)-4-(3-pentanyl)-4H-1,2,4-triazol-3-yl)-1-methoxy-2-propanesulfonamide or (1R,2S)-1-(5-chloro-2-pyrimidinyl)-N-(5-((2S)-1,4-dioxan-2-yl)-4-(3-pentanyl)-4H-1,2,4-triazol-3-yl)-1-methoxy-2-propanesulfonamide]: the 50% effective concentration (EC50) was determined as 1.4 µM.

Take `CO[C@H](c1ncc(Cl)cn1)[C@H](C)S(=O)(=O)Nc1nnc([C@@H]2COCCO2)n1C(C1CC1)C1CC1` (single isomer, unassigned) [Example 337.0, (1R,2S)-1-(5-chloro-2-pyrimidinyl)-N-(4-(dicyclopropylmethyl)-5-((2R)-1,4-dioxan-2-yl)-4H-1,2,4-triazol-3-yl)-1-methoxy-2-propanesulfonamide or (1R,2S)-1-(5-chloro-2-pyrimidinyl)-N-(4-(dicyclopropylmethyl)-5-((2S)-1,4-dioxan-2-yl)-4H-1,2,4-triazol-3-yl)-1-methoxy-2-propanesulfonamide]: the EC50 stood at 0.0069 µM.

Turning to `CO[C@H](c1ncc(Cl)cn1)[C@H](C)S(=O)(=O)Nc1nnc([C@@H]2COCCO2)n1C(C1CC1)C1CC1` (single isomer, unassigned) [Example 338.0, (1R,2S)-1-(5-chloro-2-pyrimidinyl)-N-(4-(dicyclopropylmethyl)-5-((2R)-1,4-dioxan-2-yl)-4H-1,2,4-triazol-3-yl)-1-methoxy-2-propanesulfonamide or (1R,2S)-1-(5-chloro-2-pyrimidinyl)-N-(4-(dicyclopropylmethyl)-5-((2S)-1,4-dioxan-2-yl)-4H-1,2,4-triazol-3-yl)-1-methoxy-2-propanesulfonamide], the EC50 was found to be 0.11 µM.

For `COCC1(n2c(NS(=O)(=O)[C@@H](C)[C@H](OC)c3ncc(Cl)cn3)nnc2[C@H]2CCOC2)CC1` (single isomer, unassigned) [Example 339.0, (1R,2S)-1-(5-chloro-2-pyrimidinyl)-1-methoxy-N-(4-(1-(methoxymethyl)cyclopropyl)-5-((3R)-tetrahydro-3-furanyl)-4H-1,2,4-triazol-3-yl)-2-propanesulfonamide or (1R,2S)-1-(5-chloro-2-pyrimidinyl)-1-methoxy-N-(4-(1-(methoxymethyl)cyclopropyl)-5-((3S)-tetrahydro-3-furanyl)-4H-1,2,4-triazol-3-yl)-2-propanesulfonamide], the EC50 was 1.44 µM.

With `COCC1(n2c(NS(=O)(=O)[C@@H](C)[C@H](OC)c3ncc(Cl)cn3)nnc2[C@H]2CCOC2)CC1` (single isomer, unassigned) [Example 340.0, (1R,2S)-1-(5-chloro-2-pyrimidinyl)-1-methoxy-N-(4-(1-(methoxymethyl)cyclopropyl)-5-((3R)-tetrahydro-3-furanyl)-4H-1,2,4-triazol-3-yl)-2-propanesulfonamide or (1R,2S)-1-(5-chloro-2-pyrimidinyl)-1-methoxy-N-(4-(1-(methoxymethyl)cyclopropyl)-5-((3S)-tetrahydro-3-furanyl)-4H-1,2,4-triazol-3-yl)-2-propanesulfonamide], the EC50 was determined as 0.15 µM.

Turning to `COCC1(n2c(NS(=O)(=O)[C@@H](C)[C@H](OC)c3ncc(Cl)cn3)nnc2[C@H]2COCCO2)CC1` (single isomer, unassigned) [Example 342.0, (1R,2S)-N-(5-((S)-1,4-dioxan-2-yl)-4-(1-(methoxymethyl)cyclopropyl)-4H-1,2,4-triazol-3-yl)-1-(5-chloropyrimidin-2-yl)-1-methoxypropane-2-sulfonamide or (1R,2S)-N-(5-((R)-1,4-dioxan-2-yl)-4-(1-(methoxymethyl)cyclopropyl)-4H-1,2,4-triazol-3-yl)-1-(5-chloropyrimidin-2-yl)-1-methoxypropane-2-sulfonamide], the EC50 came to 0.1 µM.

Regarding `COc1cccc(OC)c1-n1c(NS(=O)(=O)[C@@H](C)[C@H](C)c2ncc(Cl)cn2)nnc1[C@H]1CCC(=O)N1` (single isomer, unassigned) [Example 343.0, (2S,3R)-3-(5-chloropyrimidin-2-yl)-N-(4-(2,6-dimethoxyphenyl)-5-((R)-5-oxopyrrolidin-2-yl)-4H-1,2,4-triazol-3-yl)butane-2-sulfonamide or (2S,3R)-3-(5-chloropyrimidin-2-yl)-N-(4-(2,6-dimethoxyphenyl)-5-((S)-5-oxopyrrolidin-2-yl)-4H-1,2,4-triazol-3-yl)butane-2-sulfonamide], the EC50 turned out to be 0.73 µM.

Regarding `COc1cccc(OC)c1-n1c(NS(=O)(=O)[C@@H](C)[C@H](C)c2ncc(Cl)cn2)nnc1[C@H]1CCC(=O)N1` (single isomer, unassigned) [Example 344.0, (2S,3R)-3-(5-chloropyrimidin-2-yl)-N-(4-(2,6-dimethoxyphenyl)-5-((R)-5-oxopyrrolidin-2-yl)-4H-1,2,4-triazol-3-yl)butane-2-sulfonamide or (2S,3R)-3-(5-chloropyrimidin-2-yl)-N-(4-(2,6-dimethoxyphenyl)-5-((S)-5-oxopyrrolidin-2-yl)-4H-1,2,4-triazol-3-yl)butane-2-sulfonamide], the EC50 amounted to 0.23 µM.

For `COCC(COC)n1c(NS(=O)(=O)[C@@H](C)[C@@H](OC(C)C)c2ncc(Cl)cn2)nnc1[C@@H]1COCCO1` (single isomer, unassigned) [Example 356.0, (1S,2S)-1-(5-chloro-2-pyrimidinyl)-N-(4-(1,3-dimethoxy-2-propanyl)-5-((2R)-1,4-dioxan-2-yl)-4H-1,2,4-triazol-3-yl)-1-(2-propanyloxy)-2-propanesulfonamide or (1S,2S)-1-(5-chloro-2-pyrimidinyl)-N-(4-(1,3-dimethoxy-2-propanyl)-5-((2S)-1,4-dioxan-2-yl)-4H-1,2,4-triazol-3-yl)-1-(2-propanyloxy)-2-propanesulfonamide], the EC50 was determined as 0.026 µM.

Turning to `COCC(COC)n1c(NS(=O)(=O)[C@@H](C)[C@@H](OC(C)C)c2ncc(Cl)cn2)nnc1[C@@H]1COCCO1` (single isomer, unassigned) [Example 357.0, (1S,2S)-1-(5-chloro-2-pyrimidinyl)-N-(4-(1,3-dimethoxy-2-propanyl)-5-((2R)-1,4-dioxan-2-yl)-4H-1,2,4-triazol-3-yl)-1-(2-propanyloxy)-2-propanesulfonamide or (1S,2S)-1-(5-chloro-2-pyrimidinyl)-N-(4-(1,3-dimethoxy-2-propanyl)-5-((2S)-1,4-dioxan-2-yl)-4H-1,2,4-triazol-3-yl)-1-(2-propanyloxy)-2-propanesulfonamide], the EC50 stood at 0.28 µM.

`COc1ncnc(OC)c1-n1c(NS(=O)(=O)[C@@H](C)[C@H](C)c2ccc(C#N)cn2)nnc1[C@H]1CCOC1` (single isomer, unassigned) [Example 382.0, (2S,3R)-3-(5-cyano-2-pyridinyl)-N-(4-(4,6-dimethoxy-5-pyrimidinyl)-5-((3R)-tetrahydro-3-furanyl)-4H-1,2,4-triazol-3-yl)-2-butanesulfonamide or (2S,3R)-3-(5-cyano-2-pyridinyl)-N-(4-(4,6-dimethoxy-5-pyrimidinyl)-5-((3S)-tetrahydro-3-furanyl)-4H-1,2,4-triazol-3-yl)-2-butanesulfonamide]: the EC50 came out at 0.27 µM.

In the case of `COc1ncnc(OC)c1-n1c(NS(=O)(=O)[C@@H](C)[C@H](C)c2ccc(C#N)cn2)nnc1[C@H]1CCOC1` (single isomer, unassigned) [Example 383.0, (2S,3R)-3-(5-cyano-2-pyridinyl)-N-(4-(4,6-dimethoxy-5-pyrimidinyl)-5-((3R)-tetrahydro-3-furanyl)-4H-1,2,4-triazol-3-yl)-2-butanesulfonamide or (2S,3R)-3-(5-cyano-2-pyridinyl)-N-(4-(4,6-dimethoxy-5-pyrimidinyl)-5-((3S)-tetrahydro-3-furanyl)-4H-1,2,4-triazol-3-yl)-2-butanesulfonamide], the EC50 worked out at 0.68 µM.

Take `COc1cccc(OC)c1-n1c(NS(=O)(=O)CCc2ncc(Cl)cn2)nnc1[C@H]1CCOC1` (single isomer, unassigned) [Example 390.0]: the EC50 is 0.33 µM.

`COc1cccc(OC)c1-n1c(NS(=O)(=O)[C@@H](C)[C@H](C)c2ncc(Cl)cn2)nnc1[C@@H]1COC(C)(C)C1` (single isomer, unassigned) [Example 393.0, (2S,3R)-3-(5-chloro-2-pyrimidinyl)-N-(4-(2,6-dimethoxyphenyl)-5-((3R)-5,5-dimethyltetrahydro-3-furanyl)-4H-1,2,4-triazol-3-yl)-2-butanesulfonamide or (2S,3R)-3-(5-chloro-2-pyrimidinyl)-N-(4-(2,6-dimethoxyphenyl)-5-((3S)-5,5-dimethyltetrahydro-3-furanyl)-4H-1,2,4-triazol-3-yl)-2-butanesulfonamide]: the EC50 was 0.018 µM.

Regarding `COc1cccc(OC)c1-n1c(NS(=O)(=O)[C@@H](C)[C@H](C)c2ncc(Cl)cn2)nnc1[C@@H]1COC(C)(C)C1` (single isomer, unassigned) [Example 394.0, (2S,3R)-3-(5-chloro-2-pyrimidinyl)-N-(4-(2,6-dimethoxyphenyl)-5-((3R)-5,5-dimethyltetrahydro-3-furanyl)-4H-1,2,4-triazol-3-yl)-2-butanesulfonamide or (2S,3R)-3-(5-chloro-2-pyrimidinyl)-N-(4-(2,6-dimethoxyphenyl)-5-((3S)-5,5-dimethyltetrahydro-3-furanyl)-4H-1,2,4-triazol-3-yl)-2-butanesulfonamide], the EC50 was found to be 0.02 µM.

For the origin of these results see patent US10150760B2, “Compounds for use in preparing heterocyclic triazole agonists of the APJ receptor” (AMGEN INC., priority 2016, dated 2018).
